Patent US8952024B2, “Herbicidal pyrimidone derivatives” (E I du Pont de Nemours and Company, priority 2009, dated 2015)

Experiments:
Assay type in all cases: in vivo
[1] = tested on: Italian ryegrass (Lolium multiflorum); assay: Test B pre-/postemergence plant response
How it was run: (§1)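 Visually scored on a 0 to 100 scale after 13 to 15 days in greenhouse versus controls. Treatments were preemergence on seeded loam/sand soil and postemergence on 1- to 4-leaf plants.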

[2] = tested on: bermudagrass (Cynodon dactylon); assay: Test B pre-/postemergence plant response
How it was run: as §1

[3] = tested on: galium (catchweed bedstraw, Galium aparine); assay: Test B pre-/postemergence plant response; settings: Preemergence
How it was run: as §1

[4] = tested on: lambsquarters (Chenopodium album); assay: Test B pre-/postemergence plant response
How it was run: as §1

[5] = tested on: nightshade (eastern black nightshade, Solanum ptycanthum); assay: Test B pre-/postemergence plant response; settings: Preemergence
How it was run: as §1

[6] = tested on: pigweed (Amaranthus retroflexus); assay: Test B pre-/postemergence plant response
How it was run: as §1

[7] = tested on: ragweed (common ragweed, Ambrosia elatior); assay: Test B pre-/postemergence plant response
How it was run: as §1

[8] = tested on: sunflower (common oilseed sunflower, Helianthus annuus); assay: Test B pre-/postemergence plant response; settings: Preemergence
How it was run: as §1

[9] = tested on: wheat (Triticum aestivum); assay: Test B pre-/postemergence plant response
How it was run: as §1

[10] = tested on: canarygrass (Phalaris minor); assay: Test B postemergence plant response; settings: Postemergence
How it was run: (§2)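 Plants grown in peat/vermiculite medium were sprayed postemergence at 2–18 cm height (1- to 4-leaf stage). After 13–15 days in the greenhouse, response was rated visually against untreated controls on a 0–100 scale (0 no effect, 100 complete control).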

[11] = tested on: chickweed (Stellaria media); assay: Test B postemergence plant response; settings: Postemergence
How it was run: as §2

[12] = tested on: windgrass (Apera spica-venti); assay: Test B postemergence plant response; settings: Postemergence, scale 0 (no effect) to 100 (complete control)
How it was run: as §2

[13] = tested on: winter barley (Hordeum vulgare); assay: Test B postemergence plant response; settings: Postemergence
How it was run: as §2

[14] = tested on: goosegrass (Eleusine indica); assay: Test B pre-/postemergence plant response; settings: Preemergence, 62 g ai/ha; scale 0 to 100, 0 no effect, 100 complete control
[15] = 250 g ai/ha, Preemergence, 0 to 100 scale
[16] = Postemergence, 62 g ai/ha, scale 0 (no effect) to 100 (complete control), 13 to 15 days
[17] = Postemergence, 125 g ai/ha, visual rating after 13 to 15 days, scale 0 (no effect) to 100 (complete control)
[18] = Preemergence, 31 g ai/ha, scale 0 to 100 (0 no effect, 100 complete control)
[19] = Preemergence, 125 g ai/ha, 0 to 100 scale
[20] = Postemergence, 250 g ai/ha, scale 0 to 100
[21] = Preemergence, 62 g ai/ha, scale 0 to 100, 0 no effect, 100 complete control
[22] = 31 g ai/ha, scale 0 to 100 (0 no effect, 100 complete control)
[23] = 62 g ai/ha, scale 0 to 100, 0 no effect, 100 complete control
[24] = 62 g ai/ha, scale 0 (no effect) to 100 (complete control), 13 to 15 days
[25] = 125 g ai/ha, visual rating after 13 to 15 days, scale 0 (no effect) to 100 (complete control)

Cc1cccc(-n2c(-c3cccc(Cl)c3)ncc(C(=O)C3=C(O)CCCC3=O)c2=O)c1 [Compound 45]
15: Plant response rating, Wheat [9, 16] | Plant response rating, Wheat [9, 17]
98: Plant response rating, Bermudagrass [2, 18] | Plant response rating, Lambsquarters [4, 16] | Plant response rating, Nightshade [5, 22] | Plant response rating, Pigweed [6, 16] | Plant response rating, Chickweed [11, 25]
80: Plant response rating, Bermudagrass ([2]; Postemergence, 31 g ai/ha, scale 0 to 100 (0 no effect, 100 complete control)) | Ragweed plant response rating [7, 19]
75: Plant response rating, Sunflower ([8]; 250 g ai/ha, 0 to 100 scale) | Plant response rating, Chickweed [11, 22]
100: Plant response rating, Bermudagrass [2, 15] | Bermudagrass plant response rating [2, 20] | Plant response rating, Bermudagrass [2, 21] | Bermudagrass plant response rating [2, 19] | Plant response rating, Lambsquarters [4, 15] | Plant response rating, Lambsquarters [4, 17] | Lambsquarters plant response rating [4, 20] | Plant response rating, Lambsquarters [4, 18] | Plant response rating, Lambsquarters [4, 21] | Lambsquarters plant response rating [4, 19] | Plant response rating, Nightshade ([5]; 250 g ai/ha, 0 to 100 scale) | Plant response rating, Nightshade [5, 23] | Nightshade plant response rating ([5]; 125 g ai/ha, 0 to 100 scale) | Plant response rating, Pigweed [6, 15] | Plant response rating, Pigweed [6, 17] | Pigweed plant response rating [6, 19] | Chickweed plant response rating ([11]; 250 g ai/ha, scale 0 to 100) | Plant response rating, Goosegrass [14]
5: Plant response rating, Barley [13, 22] | Plant response rating, Barley [13, 24] | Plant response rating, Barley [13, 25] | Barley plant response rating ([13]; 250 g ai/ha, scale 0 to 100)
50: Galium plant response rating ([3]; 125 g ai/ha, 0 to 100 scale)
70: Plant response rating, Windgrass ([12]; 125 g ai/ha, visual rating after 13 to 15 days)
0: Plant response rating, Ryegrass, Italian [1, 15] | Plant response rating, Ryegrass, Italian [1, 18] | Ryegrass, Italian plant response rating [1, 19] | Plant response rating, Sunflower [8, 22] | Plant response rating, Wheat [9, 15] | Plant response rating, Wheat [9, 18] | Wheat plant response rating [9, 19]
45: Plant response rating, Ragweed [7, 18]
10: Sunflower plant response rating ([8]; 125 g ai/ha, 0 to 100 scale) | Plant response rating, Canarygrass [10, 22] | Plant response rating, Canarygrass [10, 24]
85: Plant response rating, Bermudagrass [2, 16] | Plant response rating, Galium ([3]; 250 g ai/ha, 0 to 100 scale) | Plant response rating, Pigweed [6, 18] | Plant response rating, Ragweed [7, 16] | Plant response rating, Chickweed [11, 24]
35: Plant response rating, Ryegrass, Italian [1, 17]
40: Plant response rating, Galium [3, 22] | Plant response rating, Galium [3, 23]
60: Plant response rating, Windgrass ([12]; 62 g ai/ha, 13 to 15 days)
30: Plant response rating, Ryegrass, Italian [1, 16] | Plant response rating, Canarygrass [10, 25] | Canarygrass plant response rating ([10]; 250 g ai/ha, scale 0 to 100)
95: Plant response rating, Bermudagrass [2, 17] | Plant response rating, Ragweed [7, 15] | Plant response rating, Ragweed [7, 17]
